Experimental data as given in patent US12479834B2, “Phenol compound or salt thereof” (TAIHO PHARMACEUTICAL CO., LTD., priority 2019, dated 2025).

Tests used:
KRAS G12C mutant = target: T1, KRAS G12C mutant (Homo sapiens, UniProt P01116, G12C); test: Inhibition of SOS1-mediated nucleotide (GDP-GTP) exchange reaction of KRAS G12C mutant, BODIPY FL GDP fluorescence; assay type: biochemical; details: preincubated 25° C. 4 hours with 25 nM KRAS G12C bound with BODIPY FL GDP; SOS1 100 nM, GppNHp 1 μM, 30 minutes
T1 construct: 50 μM G12C K-Ras4B (1-169) protein and 1 mM BODIPY® FL GDP; His tag (N, cleaved yes); made in house; host or cells: E. coli BL21 (DE3)
Excerpt: (§1) SOS1 protein was expressed in E. coli strain BL21 (DE3) by synthesizing a nucleotide sequence encoding the amino acid sequence represented by GenPept ID NP_005624 as a sequence optimized for E. coli by use of GeneArt Technology (Life Technologies Corp.) such that the protein was N-terminally His-tagged and fused with a TEV protease recognition sequence (ENLYFQG). The expressed His-tagged SOS1 (564-1049) was purified through a Ni column, then cleaved at its tag with N-terminally His-tagged TEV protease, and passed through a Ni column again to recover a flow-through fraction to obtain the protein.
Each compound was studied for its inhibitory effect on the exchange reaction of GDP into GppNHp in BODIPY® FL bound with the KRAS G12C mutant by fluorescence measurement using the G12C K-Ras4B (1-169) protein and the SOS1 protein.
For the preparation of the KRAS G12C mutant bound with BODIPY® FL GDP, first, 50 μM G12C K-Ras4B (1-169) protein and 1 mM BODIPY® FL GDP (Invitrogen Corp., G22360) were incubated for 1 hour in a buffer solution (20 mM Tris-HCl (pH 7.5), 50 mM NaCl, and 1 mM DTT) in ice in the presence of 2.5 mM EDTA. Then, MgCl2 was added thereto at a final concentration of 10 mM, then the mixture was incubated at room temperature for 30 minutes, and then, the protein was passed through a NAP-5 column for removal of free nucleotides and used for compound evaluation.
For the measurement of the inhibitory activity of compounds against nucleotide exchange reaction, first, the compound of the present invention was serially diluted with DMSO. Subsequently, the serially diluted solution of the compound of the present invention in DMSO (final concentration of DMSO: 5%) and the KRAS G12C mutant (25 nM) bound with BODIPY® FL GDP were added into a reaction buffer solution (20 mM Tris-HCl (pH 7.5), 100 mM NaCl, 1 mM MgCl2, 2 mM DTT, and 0.1% Tween 20), and the mixture was preincubated at 25° C. for 4 hours. Then, Son of Sevenless Homolog 1 (SOS1, amino acid region: 564-1049) and GppNHp (GMPPNP, Jena Bioscience GmbH, NU-401-50) were added thereto at final concentrations of 100 nM and 1 μM, respectively, and the mixture was reacted for 30 minutes. The change in fluorescence intensity of BODIPY® FL (excitation wavelength: 485 nm, fluorescence wavelength: 520 nm) between immediately after the start of reaction and after 30 minutes from the start of reaction was standardized, and then, the compound concentration at which 50% inhibition was achieved was calculated as IC50 (nM) when the signal value for only DMSO was defined as 0% inhibition and the signal value for no addition of GppNHp was defined as 100% inhibition.

G12C K-Ras4B (1-169) = target: T2, G12C K-Ras4B (1-169) (Homo sapiens, UniProt P01116, G12C); test: Binding to KRAS G12C mutant, compound binding rate by LC-MS; details: final compound concentration 2 μM, 1 μM protein, 2 hours at 25° C.
T2 construct: G12C K-Ras4B (1-169) protein, which was a KRAS G12C mutant; His tag (N, cleaved yes); made in house; host or cells: E. coli BL21 (DE3)
Excerpt: as §1, with “K-Ras4B (1-169)” for “SOS1”, “NP_004976” for “NP_005624”, “K-Ras4B (1-169)” for “SOS1 (564-1049)”, “fraction, which was further purified by anion-exchange chromatography” for “fraction”, “protein. G12C K-Ras4B (1-169) protein, which was a KRAS G12C mutant, was obtained in the same way as in the K-Ras4B(1-169) protein except that glycine at position 12 of the amino acid sequence represented by GenPept ID NP_004976 was mutated to cysteine.” for “protein.”
The K-Ras4B (1-169) protein and the G12C K-Ras4B (1-169) protein were mixed and diluted with a buffer solution (1×TBS and 0.1 mM TCEP) to prepare a protein solution containing 1 μM each of the proteins. Each test compound was dissolved at 10 mM in DMSO and further diluted 10-fold with DMSO to make a 1 mM solution. Then, the solution was diluted 5-fold with DMSO to make a 200 μM solution. The 200 μM solution was further diluted 5-fold to make a […] solution. 1 μL of the 40 μM test compound was added to 19 μL of the 1 μM protein solution such that the final compound concentration was 2 μM. The mixture was stored for 2 hours in an incubator of 25° C., and the reaction was terminated by the addition of 80 μL of a 1×TBS solution containing 0.2% formic acid, followed by LC-MS measurement.
The LC-MS measurement was performed by using Xevo G2-S Q-Tof manufactured by Waters Corp., performing reverse-phase chromatography with a desalting column, and obtaining mass spectra of positive ions by electrospray. For the mass spectra, spectra of polyvalent ions were collectively converted to molecular weights by the MaxEnt technique using OpenLynx software, and then, a compound binding rate was obtained from the ratio of […].
The binding rates of test compounds having a final compound concentration of 2 μM for G12C K-Ras4B (1-169) are shown in the table below. The binding rate for G12C K-Ras4B (1-169) is rated “A” for 80% or more, “B” for 60% or more and less than 80%, “C” for 40% or more and less than 60%, “D” for 20% or more and less than 40%, and “E” for less than 20%.

SMILES	IC50 (KRAS G12C mutant)	binding rate for G12C K-Ras4B (1-169) (G12C K-Ras4B (1-169))
C=CC(=O)N1CC(NC(=O)c2sc(CNc3cc(C(C)(C)C)c(Cl)cc3O)nc2C(F)(F)F)C1 [Example 24, N-(1-Acryloylazetidin-3-yl)-2-(((5-(tert-butyl)-4-chloro-2-hydroxyphenyl)amino)methyl)-4-(trifluoromethyl)thiazole-5-carboxamide]	780 nM	C (40% or more and less than 60%)
C=CC(=O)N1CC(NC(=O)c2c(C)nc(CNc3cc4c(cc3O)CCC4(C)C)n2C)C1 [Example 72, N-(1-Acryloylazetidin-3-yl)-2-(((6-hydroxy-3,3-dimethyl-2,3-dihydro-1H-inden-5-yl)amino)methyl)-1,4-dimethyl-1H-imidazole-5-carboxamide]	164 nM	A (80% or more)
C=CC(=O)N1CC(NC(=O)c2cnc(CNc3cc(C(C)(C)C)c(C)cc3O)n2C)C1 [Example 68, N-(1-Acryloylazetidin-3-yl)-2-(((5-(tert-butyl)-2-hydroxy-4-methylphenyl)amino)methyl)-1-methyl-1H-imidazole-5-carboxamide]	33 nM	A (80% or more)
C=CC(=O)N1CC(NC(=O)c2ccc(CNc3cc(C(C)(C)C)c(C#N)cc3O)o2)C1 [Example 67, N-(1-Acryloylazetidin-3-yl)-5-(((5-(tert-butyl)-4-cyano-2-hydroxyphenyl)amino)methyl)furan-2-carboxamide]	1030 nM	C (40% or more and less than 60%)
C=CC(=O)N1CC(N(C)C(=O)c2cccc(CNc3cc(C(C)(C)C)c(Cl)cc3O)n2)C1 [Example 30, N-(1-Acryloylazetidin-3-yl)-6-(((5-(tert-butyl)-4-chloro-2-hydroxyphenyl)amino)methyl)-N-methylpicolinamide]	1690 nM	E (less than 20%)
C=CC(=O)N1CC(NC(=O)c2c(C)nc(CNc3nc([Si](C)(C)C)c(Cl)cc3O)n2C)C1 [Example 85, N-(1-Acryloylazetidin-3-yl)-2-(((5-chloro-3-hydroxy-6-(trimethylsilyl)pyridin-2-yl)amino)methyl)-1,4-dimethyl-1H-imidazole-5-carboxamide]	39 nM	C (40% or more and less than 60%)
C=CC(=O)N1CC(NC(=O)c2cc(CNc3cc(C(C)(C)C)c(Cl)cc3O)ccc2F)C1 [Example 23, N-(1-Acryloylazetidin-3-yl)-5-(((5-(tert-butyl)-4-chloro-2-hydroxyphenyl)amino)methyl)-2-fluorobenzamide]	1000 nM	C (40% or more and less than 60%)
C=CC(=O)N1CC(NC(=O)c2ccc(CNc3cc(C(C)(C)C)c(Cl)cc3OC)o2)C1 [Reference Example1, N-(1-Acryloylazetidin-3-yl)-5-(((5-(tert-butyl)-4-chloro-2-methoxyphenyl)amino)methyl)furan-2-carboxamide, reference compound]	> 10000 nM	E (less than 20%)
C=CC(=O)N1CC(NC(=O)c2ccc(C(C)Nc3cc(C(C)(C)C)c(Cl)cc3O)o2)C1 (stereo not shown) [Example 79, N-(1-Acryloylazetidin-3-yl)-5-(1-((5-(tert-butyl)-4-chloro-2-hydroxyphenyl)amino)ethyl)furan-2-carboxamide]	3900 nM	D (20% or more and less than 40%)
C=CC(=O)N1CC(N(C)C(=O)c2cnc(CNc3cc(C(C)(C)C)c(Cl)cc3O)o2)C1 [Example 28, N-(1-Acryloylazetidin-3-yl)-2-(((5-(tert-butyl)-4-chloro-2-hydroxyphenyl)amino)methyl)-N-methyloxazole-5-carboxamide]	201 nM	C (40% or more and less than 60%)
C=CC(=O)N1CC(NC(=O)c2cncc(CNc3cc(C(C)(C)C)c(Cl)cc3O)c2)C1 [Example 17, N-(1-Acryloylazetidin-3-yl)-5-(((5-(tert-butyl)-4-chloro-2-hydroxyphenyl)amino)methyl)nicotinamide]	2070 nM	D (20% or more and less than 40%)
